Reference: BindingDB's records for doi:10.7270/Q2TX3CTT (Broad Institute, 2010)
Counter-ions that a name gives are not always drawn.

Target: Glycogen synthase kinase-3 beta (Homo sapiens, UniProt P49841)
Experiment: GSK3beta kinase inhibitor potency, dose response, biochemical, luminescence, cell-free homogeneous, retest (AID 434954)

Glycogen synthase kinase-3 beta, sequence (P49841 whole entry): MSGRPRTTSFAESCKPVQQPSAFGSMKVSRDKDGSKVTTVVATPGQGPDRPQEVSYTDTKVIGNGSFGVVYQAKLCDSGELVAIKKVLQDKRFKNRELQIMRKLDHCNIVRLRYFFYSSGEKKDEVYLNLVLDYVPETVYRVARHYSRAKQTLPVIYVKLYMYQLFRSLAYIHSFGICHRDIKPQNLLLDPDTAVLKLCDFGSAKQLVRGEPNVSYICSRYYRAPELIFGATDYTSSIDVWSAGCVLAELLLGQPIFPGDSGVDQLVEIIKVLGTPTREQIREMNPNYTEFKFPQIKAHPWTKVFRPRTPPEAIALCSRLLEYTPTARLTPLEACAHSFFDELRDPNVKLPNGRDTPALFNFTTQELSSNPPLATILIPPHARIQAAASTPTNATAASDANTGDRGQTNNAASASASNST

SMILES	EC50 [µM]
CC(Sc1ccc2nnc(-c3ccc(F)cc3)n2n1)C(=O)O (configuration not stated) [2-[[3-(4-fluorophenyl)-[1,2,4]triazolo[4,3-b]pyridazin-6-yl]sulfanyl]propanoic acid]	21.4
O=C(CSc1ccc2nnc(-c3ccc(F)cc3)n2n1)NCc1ccco1 [2-[[3-(4-fluorophenyl)-[1,2,4]triazolo[4,3-b]pyridazin-6-yl]thio]-N-(2-furanylmethyl)acetamide]	39.9
CCC(Sc1ccc2nnc(-c3ccc(F)cc3)n2n1)C(=O)O (configuration not stated) [2-[[3-(4-fluorophenyl)-[1,2,4]triazolo[4,3-b]pyridazin-6-yl]thio]butanoic acid]	29.5
CCOC(=O)C(C)Sc1ccc2nnc(-c3ccc(F)cc3)n2n1 (configuration not stated) [2-[[3-(4-fluorophenyl)-[1,2,4]triazolo[4,3-b]pyridazin-6-yl]thio]propanoic acid ethyl ester]	19.3
Cc1ccc(-c2nnc3ccc(SC(C)C(=O)O)nn23)cc1 (configuration not stated) [2-[[3-(4-methylphenyl)-[1,2,4]triazolo[4,3-b]pyridazin-6-yl]sulfanyl]propanoic acid]	34.2
CC(C)N1CCc2c(sc(NC(=O)CCS(=O)(=O)c3ccccc3)c2C(N)=O)C1 [2-[[3-(benzenesulfonyl)-1-oxopropyl]amino]-6-propan-2-yl-5,7-dihydro-4H-thieno[2,3-c]pyridine-3-carboxamide;hydrochloride]	> 300
Cc1ccc(C(=O)c2coc3ccc(OCC(=O)O)cc23)cc1 [2-[[3-[(4-methylphenyl)-oxomethyl]-5-benzofuranyl]oxy]acetic acid]	3.66
COc1ccc(-n2c(Cc3cccn3C)nnc2SCC(=O)NCC2CCCO2)cc1 (configuration not stated) [2-[[4-(4-methoxyphenyl)-5-[(1-methylpyrrol-2-yl)methyl]-1,2,4-triazol-3-yl]sulfanyl]-N-(oxolan-2-ylmethyl)acetamide]	> 300
CCNc1nc(SCC(N)=O)nc2sc3c(c12)CCN(C)C3 [2-[[4-(ethylamino)-7-methyl-6,8-dihydro-5H-pyrido[4,5]thieno[1,2-c]pyrimidin-2-yl]sulfanyl]acetamide]	49.4
Nc1nc(NCCO)nc(NCc2ccccc2)c1[N+](=O)[O-] [2-[[4-amino-6-(benzylamino)-5-nitropyrimidin-2-yl]amino]ethanol]	20.2
Nc1nc(NCCO)nc(NC2CCCCC2)c1[N+](=O)[O-] [2-[[4-amino-6-(cyclohexylamino)-5-nitro-2-pyrimidinyl]amino]ethanol]	1.36
Nc1nc(NCC(=O)O)nc(NC2CCCCC2)c1[N+](=O)[O-] [2-[[4-azanyl-6-(cyclohexylamino)-5-nitro-pyrimidin-2-yl]amino]ethanoic acid]	> 300
Cc1[nH]c2ccccc2c1Cc1nnc(SCC(N)=O)o1 [2-[[5-[(2-methyl-1H-indol-3-yl)methyl]-1,3,4-oxadiazol-2-yl]sulfanyl]acetamide]	> 300
Nc1nc(Nc2cccc(F)c2)nc(NCCO)c1[N+](=O)[O-] [2-[[6-amino-2-(3-fluoroanilino)-5-nitro-4-pyrimidinyl]amino]ethanol]	114
CC(C)CCNc1nc(N)c([N+](=O)[O-])c(NCCO)n1 [2-[[6-amino-2-(3-methylbutylamino)-5-nitropyrimidin-4-yl]amino]ethanol]	6.82
Nc1nc(Nc2ccc(Cl)cc2)nc(NCCO)c1[N+](=O)[O-] [2-[[6-amino-2-(4-chloroanilino)-5-nitropyrimidin-4-yl]amino]ethanol]	1.7
Nc1nc(NC2CCCCC2)nc(NCCO)c1[N+](=O)[O-] [2-[[6-amino-2-(cyclohexylamino)-5-nitro-4-pyrimidinyl]amino]ethanol]	2.16
CN(C)CCCNc1nc(N)c([N+](=O)[O-])c(NCCO)n1 [2-[[6-amino-2-[3-(dimethylamino)propylamino]-5-nitro-4-pyrimidinyl]amino]ethanol]	60.3
COCCNc1nc(N)c([N+](=O)[O-])c(NCCO)n1 [2-[[6-azanyl-2-(2-methoxyethylamino)-5-nitro-pyrimidin-4-yl]amino]ethanol]	28.5
COc1nc(N(C)C)nc(N(C#N)CCOC(C)=O)n1 [2-[cyano-[4-(dimethylamino)-6-methoxy-1,3,5-triazin-2-yl]amino]ethyl ethanoate]	> 300
COc1ccc(OC)c(-c2cc(-c3cccnc3)nc(N)c2C#N)c1 [2-amino-4-(2,5-dimethoxyphenyl)-6-pyridin-3-ylpyridine-3-carbonitrile]	> 300
CCSc1nc(N)nc(-c2cccs2)c1C#N [2-amino-4-ethylsulfanyl-6-thiophen-2-ylpyrimidine-5-carbonitrile]	> 300
COC(=O)c1sc(Nc2ccccc2)nc1C [2-anilino-4-methyl-5-thiazolecarboxylic acid methyl ester]	> 300
Nc1nc(S)c2ncn(C3OC(CO)C(O)C3O)c2n1 (configuration not stated) [2-azanyl-9-[5-(hydroxymethyl)-3,4-bis(oxidanyl)oxolan-2-yl]-3H-purine-6-thione]	> 300
O=C(O)c1cc(N=NCc2ccc(-c3ccc(F)cc3)o2)ccc1Cl [2-chloranyl-5-[2-[[5-(4-fluorophenyl)furan-2-yl]methylidene]hydrazinyl]benzoic acid]	> 300
NS(=O)(=O)c1cc(C(=O)NNC2=c3ccccc3=NC2=O)ccc1Cl [2-chloro-5-[[(2-oxoindol-3-yl)amino]carbamoyl]benzenesulfonamide]	43.9

SMILES	EC50 [µM]
O=C(O)c1cc(-c2ccc(CN=Nc3ccc(Cl)cc3)o2)ccc1Cl [2-chloro-5-{5-[2-(4-chlorophenyl)carbonohydrazonoyl]-2-furyl}benzoic acid]	> 300
O=C(NCC(c1ccco1)N1CCc2ccccc2C1)c1ccccc1Cl (configuration not stated) [2-chloro-N-[2-(3,4-dihydro-1H-isoquinolin-2-yl)-2-(2-furanyl)ethyl]benzamide]	> 300
COc1ccc2nc(NC(=O)CCNC(=O)c3ccccc3Cl)sc2c1 [2-chloro-N-[3-[(6-methoxy-1,3-benzothiazol-2-yl)amino]-3-oxopropyl]benzamide]	> 300
NC(=O)c1cccc2c1C(=O)N(C1CCCCC1)C2 [2-cyclohexyl-3-oxoisoindoline-4-carboxamide]	> 300
O=C(O)c1cc(C2CC2)nc2ccccc12 [2-cyclopropyl-4-quinolinecarboxylic acid]	> 300
CCc1nc2oc3cc(OC)ccc3c(=O)c2c(=O)n1Cc1ccccc1 [2-ethyl-8-methoxy-3-(phenylmethyl)chromeno[2,3-d]pyrimidine-4,5-dione]	4.2
CCCCC(CC)C(=O)Nc1ncc([N+](=O)[O-])s1 (configuration not stated) [2-ethyl-N-(5-nitro-2-thiazolyl)hexanamide]	64.2
CCSc1nc(-c2ccccc2)c(C#N)c(=O)[nH]1 [2-ethylsulfanyl-4-oxidanylidene-6-phenyl-1H-pyrimidine-5-carbonitrile]	> 300
CCSc1nnc(-c2cccs2)o1 [2-ethylsulfanyl-5-thiophen-2-yl-1,3,4-oxadiazole]	> 300
O=C(OCCCOC(=O)c1ccccc1O)c1ccccc1O [2-hydroxybenzoic acid 3-[(2-hydroxyphenyl)-oxomethoxy]propyl ester]	> 300
Cc1ccc(-n2c(C)c([N+](=O)[O-])c3ccc(O)cc32)cc1 [2-methyl-1-(4-methylphenyl)-3-nitro-indol-6-ol]	> 300
Cc1c([N+](=O)[O-])c2ccc(O)cc2n1-c1ccccc1 [2-methyl-3-nitro-1-phenylindol-6-ol]	2.14
CC1=C(C(=O)N2CCCCC2)C(c2cccs2)C2C(=O)CCCC2=N1 (configuration not stated) [2-methyl-3-piperidin-1-ylcarbonyl-4-thiophen-2-yl-4,6,7,8-tetrahydro-1H-quinolin-5-one]	> 300
Cc1ccnc(NC(=O)c2cccc([N+](=O)[O-])c2C)c1 [2-methyl-N-(4-methylpyridin-2-yl)-3-nitro-benzamide]	> 300
O=C1CC(O)(C(F)(F)F)Oc2c1ccc1ccccc21 (configuration not stated) [2-oxidanyl-2-(trifluoromethyl)-3H-benzo[h]chromen-4-one]	> 300
c1cncc(CNc2nc(-c3cccnc3)nc3ccccc23)c1 [2-pyridin-3-yl-N-(pyridin-3-ylmethyl)quinazolin-4-amine]	> 300
O=C1NC(c2cccs2)Nc2sc3c(c21)CCCC3 (configuration not stated) [2-thiophen-2-yl-2,3,5,6,7,8-hexahydro-1H-[1]benzothiolo[2,3-d]pyrimidin-4-one]	> 300
Cc1cc(NC(=O)CSc2ccc3nnc(-c4ccc(F)cc4)n3n2)no1 [2-{[3-(4-fluorophenyl)[1,2,4]triazolo[4,3-b]pyridazin-6-yl]thio}-N-(5-methylisoxazol-3-yl)acetamide]	> 300
NC(=O)c1c(NC(=O)CCCn2cnc([N+](=O)[O-])n2)sc2c1CCCC2 [2-{[4-(3-nitro-1H-1,2,4-triazol-1-yl)butanoyl]amino}-4,5,6,7-tetrahydro-1-benzothiophene-3-carboxamide]	105
Clc1ccccc1CSc1nnc(-c2ccncc2)o1 [2-{[(2-chlorophenyl)methyl]sulfanyl}-5-(pyridin-4-yl)-1,3,4-oxadiazole]	4.85
COC1=CC(=O)CC(C)C12Oc1cc(OC)cc(OC)c1C2=O (configuration not stated) [3',4,6-trimethoxy-5'-methyl-spiro[1-benzofuran-2,4'-cyclohex-2-ene]-1',3-dione]	> 300
CC(C)=CCc1c(O)ccc(C2COc3c(CC=C(C)C)c(O)cc(O)c3C2=O)c1O (configuration not stated) [3',8-diprenyldalbergioidin]	> 300
COc1ccc(C(=O)NCC(=O)NN=Cc2ccc(C)o2)cc1OC [3,4-dimethoxy-N-(2-{2-[(5-methyl-2-furyl)methylene]hydrazino}-2-oxoethyl)benzamide]	> 300
COc1ccc(C(=O)Nc2ccc([N+](=O)[O-])cn2)cc1OC [3,4-dimethoxy-N-(5-nitropyridin-2-yl)benzamide]	> 300
Cc1ccc2c(C)c(C(=O)Nc3nnc(C)s3)oc2c1 [3,6-dimethyl-N-(5-methyl-1,3,4-thiadiazol-2-yl)-1-benzofuran-2-carboxamide]	> 300
Cc1ccc(C2c3c(n[nH]c3C)N=C3CC(C)(C)CC(=O)C32)cc1 (configuration not stated) [3,7,7-trimethyl-4-(4-methylphenyl)-2,4,6,8-tetrahydro-1H-pyrazolo[3,4-b]quinolin-5-one]	9.26
